Results as given in publication PMC7010297, “How the initiating ribosome copes with ppGpp to translate mRNAs” (PLoS Biology, 2020).
Several values for one entry are separate records, joined by “and”; a condition that tells them apart may be missing. Equal values may be shown once. Read-outs that look alike come from different tables or passages of the source.

How the values were obtained:
30S IC [1] = target: T1, 30S IC (Escherichia coli, UniProt P0A705); test: ppGpp tolerance of 30S IC formation by MST; assay type: binding; parameters: 6xHis (N); made in house
Method: (§1) Fig 7 SETIs and ppGpp tolerance. (A) Translation initiation efficiency as a function of mRNAs along five steps of transition from NS to S conditions. […] Symbols and error bars represent averages of three replicates and standard deviations, respectively (S1 Data). (C) Comparison of ppGpp tolerance as calculated from the ratio of translation initiation efficiencies found in the presence of 0.2 mM ppGpp over the efficiencies obtained in the absence of the alarmone (S1 Data). […] All 30S IC components are as in Fig 1. Dashed line indicates the average tolerance of all mRNAs lacking the SETI element.

[2] = test system: mRNA translation (protein synthesis); test: In vitro translation in pure cell-free system (PURExpress, Lumio labelling); assay type: biochemical
Method: Fig 5 Permissive ppGpp-mediated inhibition of mRNA translation. (A) Scheme of the translating 70S complex. (B) In vitro translation of mTufA and mInfA derivatives harboring a coding sequence for the Lumio labelling system (Experimental conditions and analysis). […] Synthetized proteins were fluorescently labelled and resolved by 20% SDS-PAGE. The resulting images were analyzed by pixel densitometry using ImageJ [37] to estimate translation efficiencies (TEs). […] (D) Comparison of inhibitory constants for both mRNAs as measured during 30S IC formation (white) or overall translation efficiency (gray). Mean and standard deviations from three measurements are plotted (S1 Data). GTP, guanosine triphosphate; mInfA, InfA mRNA; mTufA, TufA mRNA; TE, translation efficiency.
In order to visualize overall protein synthesis, we used a coupled transcription-translation cell-free system. Reactions were carried out in 10 μL of the purified components from the PURExpress In Vitro Protein Synthesis Kit (E6800S/L, NEB, Ipswich, Massachusetts) with the corresponding templates. These reactions were incubated at 37°C for 2 hours. […] After incubation, sample processing and fluorescent labelling were carried out as described by the Lumio Green Detection Kit (LC6090, ThermoScientific, Waltham, Massachusetts) for in vitro reactions. Finally, 20 μL of labelled samples were loaded into 20% SDS-PAGE gels and visualized under a Blue-light LED transilluminator with orange filter (Cleaver Scientific LTD, Warwickshire, UK). Gel quantification was performed by pixel densitometry analysis using ImageJ software.

[3] = test system: mRNA translation (protein synthesis); test: as above; assay type: biochemical; conditions: 2 mM ppGpp; Fig 6G
30S IC [4] = target: T1, 30S IC; conditions: for T. initiation Average / T. initiation Replicates: Fig 7A
Method: as §1
The transition towards stringent response entails changes in the composition of all guanosine nucleotides. […] To inquire how the 30S IC responds during the transition from non-stringent (NS) to stringent (S) guanosine nucleotide conditions in the cell, we measured translation initiation along 5 combinations of guanosine nucleotides by thermophoresis, from NS to S conditions (Fig 7A).
The 30S complexes were reconstituted using pure subunits, IFs, tRNAi, mRNA, and nucleotides. The 30S subunits were reactivated by incubation in TAKM20 buffer (as TAKM3.5 but with 20 mM MgCl2) for 1 hour at 37°C prior to use. Generally, 30S ICs were formed by incubation at 37°C for 30 minutes in TAKM7 using 1 μM 30S subunits, 4 μM mRNA, 2 μM IF1, 1 μM IF2, 1.5 μM IF3, 0.5 μM Bpy-Met-tRNA^fMet, and 0.2 mM guanosine nucleotides, unless otherwise stated in the Results or figure captions. Ligand titrations were prepared using serial dilutions using 1:1 mixing of complexes containing the highest concentration of the titrant with complexes lacking only the ligand under investigation. The number of reactions were set up to cover a wide range of concentrations.
MST was measured on 10-μL reactions using standard capillaries (MO-K022, NanoTemper Technologies, Munich, Germany) on a Monolith NT.115 (NanoTemper Technologies, Munich, Germany) at monochromatic LED with power input of 30% and IR laser power of 40%. The local temperature perturbation was expected to be less than 3°C. All measurements were performed at room temperature (22 ± 2°C). Three to four replicates were measured for each investigated reaction to calculate mean and standard deviation. […] KD were calculated using a hyperbolic or quadratic function using Graphpad Prism 6.0 (GraphPad, San Diego, California) or software provided by NanoTemper.

T1 sequence (P0A705 whole entry, looked up): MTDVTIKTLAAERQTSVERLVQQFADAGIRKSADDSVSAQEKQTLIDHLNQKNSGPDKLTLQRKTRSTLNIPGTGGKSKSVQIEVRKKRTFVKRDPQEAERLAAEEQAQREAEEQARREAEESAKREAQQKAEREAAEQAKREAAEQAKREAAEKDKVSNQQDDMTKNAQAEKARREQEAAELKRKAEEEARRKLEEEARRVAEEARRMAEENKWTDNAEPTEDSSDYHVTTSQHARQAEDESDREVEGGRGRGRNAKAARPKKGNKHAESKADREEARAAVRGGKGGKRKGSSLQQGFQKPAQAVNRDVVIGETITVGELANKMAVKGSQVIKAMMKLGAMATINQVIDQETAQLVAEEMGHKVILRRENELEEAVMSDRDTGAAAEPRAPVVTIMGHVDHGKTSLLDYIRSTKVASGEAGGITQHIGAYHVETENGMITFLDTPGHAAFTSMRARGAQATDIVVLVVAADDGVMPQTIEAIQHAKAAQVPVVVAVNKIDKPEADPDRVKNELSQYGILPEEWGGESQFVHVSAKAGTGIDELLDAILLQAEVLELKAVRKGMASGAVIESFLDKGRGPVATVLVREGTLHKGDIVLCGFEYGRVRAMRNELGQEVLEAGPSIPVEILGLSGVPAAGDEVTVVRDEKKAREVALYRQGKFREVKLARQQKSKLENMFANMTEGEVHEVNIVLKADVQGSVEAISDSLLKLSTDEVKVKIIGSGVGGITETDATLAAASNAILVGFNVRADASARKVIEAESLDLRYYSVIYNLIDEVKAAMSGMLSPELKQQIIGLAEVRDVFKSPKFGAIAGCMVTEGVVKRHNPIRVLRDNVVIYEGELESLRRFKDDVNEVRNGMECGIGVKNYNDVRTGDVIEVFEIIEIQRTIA

Nc1nc2c(ncn2[C@@H]2O[C@H](COP(=O)(O)OP(=O)(O)O)[C@@H](OP(=O)(O)OP(=O)(O)O)[C@H]2O)c(=O)[nH]1 [ppGpp]
Ki (30S IC [1]; mRNA mInfA, read-out: 30S IC Ki (μM), replicates): 0.598 µM and 0.576 µM and 0.587 µM
Ki (30S IC [1]; mRNA mInfA, read-out: 30S IC Ki Average): 0.587 µM
Ki (30S IC [1]; mRNA mTufA, read-out: 30S IC Ki (μM), replicates): 2.19 µM and 2.21 µM and 2.22 µM
Ki (30S IC [1]; mRNA mTufA, read-out: 30S IC Ki Average): 2.21 µM
P.D. Average ([2]; mInfA, Log [ppGpp] 1.00): 2.85 a.u.x10^4
P.D. Replicates (a.u.x10^4) ([2]; mInfA, Log [ppGpp] 1.00): 2.78 a.u.x10^4 and 2.92 a.u.x10^4 and 2.86 a.u.x10^4
P.D. Average ([2]; mInfA, Log [ppGpp] 2.40): 2.28 a.u.x10^4
P.D. Replicates (a.u.x10^4) ([2]; mInfA, Log [ppGpp] 2.40): 2.16 a.u.x10^4 and 2.34 a.u.x10^4 and 2.33 a.u.x10^4
P.D. Average ([2]; mInfA, Log [ppGpp] 2.70): 1.67 a.u.x10^4
P.D. Replicates (a.u.x10^4) ([2]; mInfA, Log [ppGpp] 2.70): 1.54 a.u.x10^4 and 1.80 a.u.x10^4 and 1.68 a.u.x10^4
P.D. Average ([2]; mInfA, Log [ppGpp] 3.00): 0.00 a.u.x10^4
P.D. Replicates (a.u.x10^4) ([2]; mInfA, Log [ppGpp] 3.00): 0.00 a.u.x10^4
P.D. Average ([2]; mInfA, Log [ppGpp] 3.30): 0.00 a.u.x10^4
P.D. Replicates (a.u.x10^4) ([2]; mInfA, Log [ppGpp] 3.30): 0.00 a.u.x10^4
P.D. Average ([2]; mInfA, Log [ppGpp] 3.60): 0.00 a.u.x10^4
P.D. Replicates (a.u.x10^4) ([2]; mInfA, Log [ppGpp] 3.60): 0.00 a.u.x10^4
Ki ([2]; mRNA mInfA, read-out: Translation Efficiency Ki (μM), replicates): 0.816 µM and 0.72 µM and 0.838 µM
Ki ([2]; mRNA mInfA, read-out: Translation Efficiency Ki Average): 0.791 µM
Ki ([2]; mRNA mTufA, read-out: Translation Efficiency Ki (μM), replicates): 2.23 µM and 2.32 µM and 2.09 µM
Ki ([2]; mRNA mTufA, read-out: Translation Efficiency Ki Average): 2.21 µM
P.D. Average ([2]; mTufA, Log [ppGpp] 1.00): 6.41 a.u.x10^4
P.D. Replicates (a.u.x10^4) ([2]; mTufA, Log [ppGpp] 1.00): 6.33 a.u.x10^4 and 6.50 a.u.x10^4 and 6.41 a.u.x10^4
P.D. Average ([2]; mTufA, Log [ppGpp] 2.40): 5.17 a.u.x10^4
P.D. Replicates (a.u.x10^4) ([2]; mTufA, Log [ppGpp] 2.40): 5.12 a.u.x10^4 and 5.25 a.u.x10^4 and 5.15 a.u.x10^4
P.D. Average ([2]; mTufA, Log [ppGpp] 2.70): 4.76 a.u.x10^4
P.D. Replicates (a.u.x10^4) ([2]; mTufA, Log [ppGpp] 2.70): 4.72 a.u.x10^4 and 4.86 a.u.x10^4 and 4.70 a.u.x10^4
P.D. Average ([2]; mTufA, Log [ppGpp] 3.00): 3.38 a.u.x10^4
P.D. Replicates (a.u.x10^4) ([2]; mTufA, Log [ppGpp] 3.00): 3.31 a.u.x10^4 and 3.47 a.u.x10^4 and 3.35 a.u.x10^4
P.D. Average ([2]; mTufA, Log [ppGpp] 3.30): 2.72 a.u.x10^4
P.D. Replicates (a.u.x10^4) ([2]; mTufA, Log [ppGpp] 3.30): 2.68 a.u.x10^4 and 2.81 a.u.x10^4 and 2.66 a.u.x10^4
P.D. Average ([2]; mTufA, Log [ppGpp] 3.60): 1.21 a.u.x10^4
P.D. Replicates (a.u.x10^4) ([2]; mTufA, Log [ppGpp] 3.60): 1.18 a.u.x10^4 and 1.24 a.u.x10^4 and 1.21 a.u.x10^4

B1: mTufA: TufA mRNA with full-length 5′ UTR, in vitro transcribed, codes for EF-Tu (nucleic acid)
chain: GGUUCUAUCGCCUUUAAAGAAGGCUUUAAGAAAGCGAAACCAGUUCUGCUUGAGCCGAUCAUGAAGGUUGAAGUAGAAACUCCGGAAGAGAACACCGGUGACGUUAUCGGUGACUUGAGCCGUCGUCGUGGUAUGCUCAAAGGUCAGGAAUCUGAAGUUACUGGCGUUAAGAUCCACGCUGAAGUACCGCUGUCUGAAAUGUUCGGAUACGCAACUCAGCUGCGUUCUCUGACCAAAGGUCGUGCAUCAUACACUAUGGAAUUCCUGAAGUAUGAUGAAGCGCCGAGUAACGUUGCUCAGGCCGUAAUUGAAGCCCGUGGUAAAUAAGCCUAAGGGUUAAUACCAAAGUCCCGUGCUCUCUCCUGAAGGGGAGAGCACUAUAGUAAGGAAUAUAGCCGUGUCUAAAGAAAAAUUUGAACG
ppGpp tolerance (30S IC [1]; 30S ICs with 4-fold excess of ppGpp (0.2 mM) over GTP vs without alarmone): up to 25%
Translation Replicate [3]: 0.27 a.u.
Translation Avg ([2]; 2 mM ppGpp, Fig 6G): 0.27 a.u.
Translation Avg ([2]; No ppGpp, Fig 6G): 0.83 a.u.
Translation Replicate ([2]; No ppGpp, Fig 6G): 0.83 a.u.
translation higher than mInfA ([2]; in the absence of ppGpp): 3 fold
T. initiation Average (30S IC [4]; NS to S 1): 81.23%
T. initiation Replicates (30S IC [4]; NS to S 1): 79.55% and 82.59% and 81.55%
T. initiation Average (30S IC [4]; NS to S 2): 75.89%
T. initiation Replicates (30S IC [4]; NS to S 2): 72.98% and 77.43% and 77.26%
T. initiation Average (30S IC [4]; NS to S 3): 60.14%
T. initiation Replicates (30S IC [4]; NS to S 3): 59.08% and 60.37% and 60.97%
T. initiation Average (30S IC [4]; NS to S 4): 45.96%
T. initiation Replicates (30S IC [4]; NS to S 4): 44.86% and 46.36% and 46.65%
T. initiation Average (30S IC [4]; NS to S 5): 23.01%
T. initiation Replicates (30S IC [4]; NS to S 5): 22.61% and 23.62% and 22.79%
translation initiation efficiency (30S IC formation retained) at S conditions (30S IC [4]; S: 1 mM ppGpp, 0.25 mM pppGpp, 0.14 mM GTP, 0.05 mM GDP): 25%
